Laboratory results as given in patent US20060281720A1, “5-Androstenediol As An Inhibitor of Gliomas” (priority 2005, published 2006).

Experiments:
[1] = tested on: rat F98 glioma cells; experiment: Morphology of rat F98 glioma cells viewed in situ by microscope; format: cell-based; settings: Example 3, FIG. 3, 24 hours; for morphological changes compared to vehicle treated cells: 20× magnification
Procedure: Cells were cultured as described in example 1 for 24 hours. Cells were cultured with […] of αAED, βAED, βAET, and vehicle. After culture, the cells were viewed in situ under 20× magnification using a reverse image microscope.

[2] = tested on: murine P388D1; settings: Huynh and Loria, J Leukoc Biol 1997; cited from earlier work
[3] = tested on: rat F98 glioma cells; experiment: Proliferation of rat F98 glioma cells by 3H-TdR incorporation; format: cell-based; settings: 3 days; for cell growth / proliferation (3H-TdR incorporation): compared to controls; for dose dependency of antiproliferative effect / proliferation: Example 2, FIG. 2; for dose dependency of antiproliferative effect: 500, 50, 5.0 and 0.5 μm; for proliferation: at 500 μm
Procedure: (§1) αAED, βAED, αAET, and βAET, are commercially available.
(§2) The F98 cells are weakly immunogenic. […] The T9 cell line is tumorgenic and immunogenic.
(§3) During the growth phase, the media was not changed.
(§4) Rat F98 glioma cells and […] glioma cells were grown and cultured as in example 1 above. The cells were cultured in the presence of αAED or βAED in titrated concentrations of 500 μm, 50 μm, 5.0 μm, and 0.5 μm. After 3 days, glioma cell proliferation was measured as described above.
(§5) The cells were cultured in the presence of αAED, βAED, αAET, βAET, or vehicle in titrated concentrations of 400 μm, 200 μm, 100 μm, and 50 μm.

[4] = tested on: Raw 264.7; settings: Huynh and Loria, J Leukoc Biol 1997; cited from earlier work
[5] = tested on: human promyelocytic HL60 cells; settings: Huynh and Loria, J Leukoc Biol 1997; cited from earlier work
[6] = tested on: rat T9 glioma cells; settings: Example 1, FIG. 1; 500 μm, 3 days, compared to controls
Procedure: (§6) αAED, βAED, αAET, and βAET, are commercially available. Unless otherwise indicated, all steroids were dissolved in DMSO:ETHOL (1:1 v/v). Stock solutions were refrigerated and brought to room temperature before use. For testing, stock solutions were diluted in media immediately before use.
(§7) The rat F98 cell line was obtained from the American Type Culture Collection (ATCC No. CRL-2397). These cells are tumorgenic and have biological characteristics that closely resemble those of human glioblastoma. The F98 cells are weakly immunogenic. […] The T9 cell line is tumorgenic and immunogenic. The human U-87 cell line was obtained from American Type Culture Collection (ATCC No. HTB-14). These cells are tumorgenic and are derived from malignant gliomas. The human T98 cell line was obtained from the American Type Culture Collection (ATCC No. CRL-1690). These cells are derived from the brain of a subject diagnosed with glioblastoma multiforme.
(§8) Cells were grown in Complete Media (CM) consisting of Dulbecco's Modified Eagle Medium. Cells were initially seeded at a density of 1×10^4 cells per 0.2 ml in 96 well plates and grown at 37° C. During the growth phase, the media was not changed. Proliferation was measured by tritium uptake (as a measure of DNA synthesis). One microcurie (1 μC) was added to the cells and incubated overnight. The 96 well plate was then refrigerated and counted in a topcount cell plate harvester.
(§9) Rat F98 and T9 glioma cells and […] and U87 glioma cells were cultured in 96 well plates at a density of approximately 1×10^4 cells per well. Cells were treated with 500 μm of αAED or βAED or vehicle and cultured for 3 days. The cultures were pulsed with 3H-TdR for the last 15 hours.

[7] = tested on: human U87 glioma cells; settings: Example 1, FIG. 1; 500 μm, 3 days, compared to controls
Procedure: as §6, §7, §8, §9

[8] = tested on: human T98 glioma cells; experiment: Proliferation of human T98 glioma cells by 3H-TdR incorporation; format: cell-based; settings: 3 days; for cell growth / proliferation (3H-TdR incorporation): compared to controls; for dose dependency of antiproliferative effect / proliferation: Example 2, FIG. 2; for dose dependency of antiproliferative effect: 500, 50, 5.0 and 0.5 μm; for proliferation: at 500 μm
Procedure: as §1, §2, §3, §4, §5

[9] = Example 5, FIG. 5, 400, 200, 100 and 50 μM
[10] = Example 4, FIG. 4, 400, 200, 100 and 50 μM

Compound	morphology of apoptosis (cell shrinkage, rounding, vacuolization, partial detachment, lobulated appearance) [1]	morphological changes compared to vehicle treated cells [1]	proliferation and apoptosis [2]	cell growth / proliferation (3H-TdR incorporation) ([3]; Example 1, FIG. 1, 500 μm)	dose dependency of antiproliferative effect [3]	proliferation [3]	cell growth / proliferation (3H-TdR incorporation) [3, 9]	proliferation and apoptosis [4]	proliferation and apoptosis [5]	cell growth / proliferation (3H-TdR incorporation) [6]	cell growth / proliferation (3H-TdR incorporation) [7]	cell growth / proliferation (3H-TdR incorporation) ([8]; Example 1, FIG. 1, 500 μm)	dose dependency of antiproliferative effect [8]	proliferation [8]	cell growth / proliferation (3H-TdR incorporation) [8, 10]
5-androstene-3β-17α-diol [αAED]	display morphology of apoptasis	most drastic morphological changes	inhibits the proliferation and induces apoptosis	inhibited cell growth	dose dependent	inhibited the proliferation	significantly inhibited cell growth	inhibits the proliferation and induces apoptosis	inhibits the proliferation and induces apoptosis	inhibited cell growth	inhibited cell growth	inhibited cell growth	dose dependent	inhibited the proliferation	significantly inhibited cell growth
5-androstene-3β-17β-diol [βAED]	display morphology of apoptasis	significant morphological changes		inhibited cell growth	dose dependent	inhibited the proliferation	inhibited cell growth			inhibited cell growth	inhibited cell growth	inhibited cell growth	dose dependent	inhibited the proliferation	inhibited cell growth
C[C@]12CC[C@H]3[C@@H]([C@H](O)C=C4C[C@@H](O)CC[C@@]43C)[C@@H]1CC[C@@H]2O [αAET, 5-androstene-3β-7α-17β-triol]							displayed significant effects on the proliferation								displayed significant effects on the proliferation
C[C@]12CC[C@H]3[C@@H]([C@@H](O)C=C4C[C@@H](O)CC[C@@]43C)[C@@H]1CC[C@@H]2O [βAET, 5-androstene-3β-7β-17β-triol]	display morphology of apoptasis	significant morphological changes					displayed significant effects on the proliferation								displayed significant effects on the proliferation
